Test results as given in patent US8247211B2, “Glycopeptide antibiotics” (American Cyanamid Company, priority 2001, dated 2012).
Values after ≈ are worked out from the molar mass of the structure shown. Each block holds one compound with its values, some of them ahead of it.

Assays:
Assay in all cases: In vitro antibacterial evaluation: minimum inhibitory concentration (MIC), broth dilution method
Format in all cases: cell-based
[1] = tested on: Enterococcus sp.; conditions: for MIC Enterococcus faecalis (GC 2242): strain GC 2242; for MIC Enterococcus faecalis (GC 2691): strain GC 2691; for MIC Enterococcus faecalis (GC 3059): strain GC 3059
Procedure: (§1) The minimum inhibitory concentration (MIC), the lowest concentration of the antibiotic which inhibits growth of the test organism, is determined by the broth dilution method using Muller-Hinton II […] (Baltimore Biological Laboratories) following the recommendations of the National Committee for Clinical Laboratory Standards [Methods for dilution antimicrobial susceptibility tests for bacteria that grow aerobically, approved standard M7-A2, National Committee for Clinical Laboratory Standards, Villanova, Pa].
(§2) An inoculum level of 5×10^5 CFU/mL, and a range of antibiotic concentrations (64-0.06 μg/mL) is used. […] The test organisms include a spectrum of Gram-positive bacteria comprised of Staphylococcus sp., Streptococcus sp. and Enterococcus sp. These organisms include recent clinical isolates that are resistant to methicillin, penicillin and/or vancomycin.

[2] = tested on: Escherichia coli; conditions: for MIC Escherichia coli (ATCC 25922): strain ATCC 25922; for MIC Escherichia coli (GC 4559): strain GC 4559
Procedure: as §1, §2

[3] = tested on: Staphylococcus sp.; conditions: broth dilution, 18 hours at 35° C.
Procedure: as §1, §2

[4] = tested on: Streptococcus sp.; conditions: for MIC Streptococcus pneumoniae (ATCC 6301): strain ATCC 6301; for MIC Streptococcus pneumoniae (GC 1894): strain GC 1894; for MIC Streptococcus pyogenes (GC 4563): strain GC 4563; for MIC Streptococcus agalactiae (GC 4564): strain GC 4564
Procedure: as §1, §2

[5] = broth dilution, inoculum 5×10^5 CFU/mL, 18 hours at 35° C.

MIC Enterococcus avium (GC 4558) ([1]; Enterococcus avium (GC 4558), broth dilution, 18 hours at 35° C.): 0.5 to 1 µg/mL
MIC Enterococcus faecalis (ATCC 29212) ([1]; Enterococcus faecalis (ATCC 29212), broth dilution, 18 hours at 35° C.): 0.5 to 1 µg/mL
MIC Enterococcus faecalis (GC 4554) ([1]; Enterococcus faecalis (GC 4554), broth dilution, 18 hours at 35° C.): 0.5 to 1 µg/mL
MIC Enterococcus faecalis (GC 6189) ([1]; Enterococcus faecalis (GC 6189), broth dilution, 18 hours at 35° C.): 0.5 µg/mL (≈ 0.362 µM)
MIC Enterococcus faecium (GC 2243) ([1]; Enterococcus faecium (GC 2243), broth dilution, 18 hours at 35° C.): <0.5 to 1 µg/mL
MIC Enterococcus faecium (GC 4556) ([1]; Enterococcus faecium (GC 4556), broth dilution, 18 hours at 35° C.): 1 to 2 µg/mL
MIC Enterococcus faecium (GC 4557) ([1]; Enterococcus faecium (GC 4557), broth dilution, 18 hours at 35° C.): 1 to 2 µg/mL
MIC Enterococcus faecalis (ATCC 29212) ([1]; strain ATCC 29212): 0.5 to 1 µg/mL
MIC Enterococcus faecalis (GC 2242) [1]: 0.5 to 1 µg/mL
MIC Enterococcus faecium (GC 2243) ([1]; strain GC 2243): <0.5 to 1 µg/mL
MIC Enterococcus faecalis (GC 2691) [1]: 0.5 µg/mL (≈ 0.362 µM)
MIC Enterococcus faecalis (GC 3059) [1]: 0.5 µg/mL (≈ 0.362 µM)
MIC Enterococcus faecalis (GC 4554) ([1]; strain GC 4554): 0.5 to 1 µg/mL
MIC Enterococcus faecium (GC 4556) ([1]; strain GC 4556): 1 to 2 µg/mL
MIC Enterococcus faecium (GC 4557) ([1]; strain GC 4557): 1 to 2 µg/mL
MIC Enterococcus avium (GC 4558) ([1]; strain GC 4558): 0.5 to 1 µg/mL
MIC Enterococcus faecalis (GC 6189) ([1]; strain GC 6189): 0.5 µg/mL (≈ 0.362 µM)
MIC Escherichia coli (ATCC 25922) [2]: >64 µg/mL
MIC Escherichia coli (GC 4559) [2]: >64 µg/mL
MIC Escherichi coli (GC 4560) ([2]; strain GC 4560): 0.5 to 2 µg/mL
MIC Coagulase Negative Staphylococcus (GC 4547) ([3]; 5×10^5 CFU/mL): <0.5 to 2 µg/mL
MIC Coagulase Negative Staphylococcus (GC 4548) ([3]; 5×10^5 CFU/mL): <0.5 to 1 µg/mL
MIC Coagulase Negative Staphylococcus (GC 4549) ([3]; 5×10^5 CFU/mL): <0.5 to 1 µg/mL
MIC Coagulase Negative Staphylococcus (GC 4551) ([3]; 5×10^5 CFU/mL): <0.5 to 1 µg/mL
MIC Coagulase Negative Staphylococcus (GC 6257) ([3]; 5×10^5 CFU/mL): 1 µg/mL (≈ 0.725 µM)
MIC Coagulase Negative Staphylococcus (ID-3941) ([3]; 5×10^5 CFU/mL): <0.5 µg/mL
MIC Staphylococcus aureus (GC 3051) ([3]; 5×10^5 CFU/mL): 0.5 µg/mL (≈ 0.362 µM)
MIC Staphylococcus aureus (GC 3053) ([3]; 5×10^5 CFU/mL): 0.5 µg/mL (≈ 0.362 µM)
MIC Staphylococcus aureus (GC 4545) ([3]; 5×10^5 CFU/mL): 0.5 to 1 µg/mL
MIC Staphylococcus aureus (GC 3051) ([3]; strain GC 3051): 0.5 µg/mL (≈ 0.362 µM)
MIC Staphylococcus aureus (GC 3053) ([3]; strain GC 3053): 0.5 µg/mL (≈ 0.362 µM)
MIC Staphylococcus aureus (GC 4545) ([3]; strain GC 4545): 0.5 to 1 µg/mL
MIC Coagulase Negative Staphylococcus (GC 4547) ([3]; strain GC 4547): <0.5 to 2 µg/mL
MIC Coagulase Negative Staphylococcus (GC 4548) ([3]; strain GC 4548): <0.5 to 1 µg/mL
MIC Coagulase Negative Staphylococcus (GC 4549) ([3]; strain GC 4549): <0.5 to 1 µg/mL
MIC Coagulase Negative Staphylococcus (GC 4551) ([3]; strain GC 4551): <0.5 to 1 µg/mL
MIC Coagulase Negative Staphylococcus (GC 6257) ([3]; strain GC 6257): 1 µg/mL (≈ 0.725 µM)
MIC Coagulase Negative Staphylococcus (ID-3941) ([3]; strain ID-3941): <0.5 µg/mL
MIC Streptococcus pneumoniae (ATCC 6301) [4]: 0.12 µg/mL (≈ 0.087 µM)
MIC Streptococcus pneumoniae (GC 1894) [4]: 0.12 µg/mL (≈ 0.087 µM)
MIC Streptococcus pyogenes (GC 4563) [4]: >0.12 µg/mL
MIC Streptococcus agalactiae (GC 4564) [4]: <0.12 µg/mL
MIC Streptococcus pyogenes (ID-3187) ([4]; strain ID-3187): <0.5 µg/mL
Structure (SMILES): CC(c1ccccc1)C1NC(=O)CNC(=O)C(CO)NC(=O)C(C(O)C2CNC(=N)N2C2OC(CO)C(O)C(O)C2O)NC(=O)C(C(O)C2CNC(=NC(=O)C(C)(C)C)N2)NC(=O)C(Cc2ccc(OC3OC(CO)C(OC4OC(CO)C(O)C(O)C4O)C(O)C3O)cc2)NC1=O (stereo not drawn) [Example 155, Cyclo[glycyl-β-methylphenylalanyl-O-(4-O-hexopyranosylhexopyranosyl)tyrosyl-3-[2-[(2,2-dimethylpropanoyl)imino]imidazolidin-4-yl]seryl-3-(3-hexopyranosyl-2-iminoimidazolidin-4-yl)serylseryl]]
MIC Staphylococcus haemolyticus (GC 4546) ([3]; 5×10^5 CFU/mL): <0.5 to 1 µg/mL
MIC Staphylococcus haemolyticus (GC 4546) ([3]; strain GC 4546): <0.5 to 1 µg/mL

MIC Enterococcus avium (GC 4558) [1, 5]: 64 µg/mL (≈ 43.8 µM)
MIC Enterococcus faecalis (ATCC 29212) [1, 5]: >64 µg/mL
MIC Enterococcus faecalis (GC 4552) [1, 5]: >64 µg/mL
MIC Enterococcus faecalis (GC 4553) [1, 5]: >64 µg/mL
MIC Enterococcus faecalis (GC 4554) [1, 5]: >64 µg/mL
MIC Enterococcus faecalis (GC 6189) [1, 5]: >64 µg/mL
MIC Enterococcus faecium (GC 2243) [1, 5]: 64 µg/mL (≈ 43.8 µM)
MIC Enterococcus faecium (GC 4556) [1, 5]: >64 µg/mL
MIC Enterococcus faecium (GC 4557) [1, 5]: 8 µg/mL (≈ 5.47 µM)
MIC Enterococcus faecalis (ATCC 29212) ([1]; strain ATCC 29212): >64 µg/mL
MIC Enterococcus faecalis (GC 2242) [1]: 64 µg/mL (≈ 43.8 µM)
MIC Enterococcus faecium (GC 2243) ([1]; strain GC 2243): 64 µg/mL (≈ 43.8 µM)
MIC Enterococcus faecalis (GC 2691) [1]: >64 µg/mL
MIC Enterococcus faecalis (GC 3059) [1]: >64 µg/mL
MIC Enterococcus faecalis (GC 4552) ([1]; strain GC 4552): >64 µg/mL
MIC Enterococcus faecalis (GC 4553) ([1]; strain GC 4553): >64 µg/mL
MIC Enterococcus faecalis (GC 4554) ([1]; strain GC 4554): >64 µg/mL
MIC Enterococcus faecium (GC 4556) ([1]; strain GC 4556): >64 µg/mL
MIC Enterococcus faecium (GC 4557) ([1]; strain GC 4557): 8 µg/mL (≈ 5.47 µM)
MIC Enterococcus avium (GC 4558) ([1]; strain GC 4558): 64 µg/mL (≈ 43.8 µM)
MIC Enterococcus faecalis (GC 6189) ([1]; strain GC 6189): >64 µg/mL
MIC Escherichia coli (ATCC 25922) [2]: >64 µg/mL
MIC Escherichia coli (GC 4559) [2]: >64 µg/mL
MIC Coagulase Negative Staphylococcus (GC 4547) ([3]; 5×10^5 CFU/mL): 16 µg/mL (≈ 10.9 µM)
MIC Coagulase Negative Staphylococcus (GC 4548) ([3]; 5×10^5 CFU/mL): 8 µg/mL (≈ 5.47 µM)
MIC Coagulase Negative Staphylococcus (GC 4549) ([3]; 5×10^5 CFU/mL): 8 µg/mL (≈ 5.47 µM)
MIC Coagulase Negative Staphylococcus (GC 4551) ([3]; 5×10^5 CFU/mL): 32 µg/mL (≈ 21.9 µM)
MIC Coagulase Negative Staphylococcus (GC 6257) ([3]; 5×10^5 CFU/mL): 4 µg/mL (≈ 2.74 µM)
MIC Staphylococcus aureus (ATCC 29213) ([3]; 5×10^5 CFU/mL): 32 µg/mL (≈ 21.9 µM)
MIC Staphylococcus aureus (GC 1131) ([3]; 5×10^5 CFU/mL): 32 µg/mL (≈ 21.9 µM)
MIC Staphylococcus aureus (GC 3051) ([3]; 5×10^5 CFU/mL): 16 µg/mL (≈ 10.9 µM)
MIC Staphylococcus aureus (GC 3053) ([3]; 5×10^5 CFU/mL): 32 µg/mL (≈ 21.9 µM)
MIC Staphylococcus aureus (GC 4541) ([3]; 5×10^5 CFU/mL): 16 µg/mL (≈ 10.9 µM)
MIC Staphylococcus aureus (GC 4542) ([3]; 5×10^5 CFU/mL): 32 µg/mL (≈ 21.9 µM)
MIC Staphylococcus aureus (GC 4544) ([3]; 5×10^5 CFU/mL): 32 µg/mL (≈ 21.9 µM)
MIC Staphylococcus aureus (GC 4545) ([3]; 5×10^5 CFU/mL): 16 µg/mL (≈ 10.9 µM)
MIC Staphylococcus aureus-SMITH (GC 4543) ([3]; 5×10^5 CFU/mL): 16 µg/mL (≈ 10.9 µM)
MIC Staphylococcus aureus (ATCC 29213) ([3]; strain ATCC 29213): 32 µg/mL (≈ 21.9 µM)
MIC Staphylococcus aureus (GC 1131) ([3]; strain GC 1131): 32 µg/mL (≈ 21.9 µM)
MIC Staphylococcus aureus (GC 3051) ([3]; strain GC 3051): 16 µg/mL (≈ 10.9 µM)
MIC Staphylococcus aureus (GC 3053) ([3]; strain GC 3053): 32 µg/mL (≈ 21.9 µM)
MIC Staphylococcus aureus (GC 4541) ([3]; strain GC 4541): 16 µg/mL (≈ 10.9 µM)
MIC Staphylococcus aureus (GC 4542) ([3]; strain GC 4542): 32 µg/mL (≈ 21.9 µM)
MIC Staphylococcus aureus-SMITH (GC 4543) ([3]; strain GC 4543): 16 µg/mL (≈ 10.9 µM)
MIC Staphylococcus aureus (GC 4544) ([3]; strain GC 4544): 32 µg/mL (≈ 21.9 µM)
MIC Staphylococcus aureus (GC 4545) ([3]; strain GC 4545): 16 µg/mL (≈ 10.9 µM)
MIC Coagulase Negative Staphylococcus (GC 4547) ([3]; strain GC 4547): 16 µg/mL (≈ 10.9 µM)
MIC Coagulase Negative Staphylococcus (GC 4548) ([3]; strain GC 4548): 8 µg/mL (≈ 5.47 µM)
MIC Coagulase Negative Staphylococcus (GC 4549) ([3]; strain GC 4549): 8 µg/mL (≈ 5.47 µM)
MIC Coagulase Negative Staphylococcus (GC 4551) ([3]; strain GC 4551): 32 µg/mL (≈ 21.9 µM)
MIC Coagulase Negative Staphylococcus (GC 6257) ([3]; strain GC 6257): 4 µg/mL (≈ 2.74 µM)
MIC Streptococcus pneumoniae (ATCC 6301) [4]: 4 µg/mL (≈ 2.74 µM)
MIC Streptococcus pneumoniae (GC 1894) [4]: 4 µg/mL (≈ 2.74 µM)
MIC Streptococcus pyogenes (GC 4563) [4]: 8 µg/mL (≈ 5.47 µM)
MIC Streptococcus agalactiae (GC 4564) [4]: 16 µg/mL (≈ 10.9 µM)
MIC Streptococcus pneumoniae (GC 4565) ([4]; strain GC 4565): 4 µg/mL (≈ 2.74 µM)
Structure (SMILES): CC(c1ccccc1)C1NC(=O)CNC(=O)C(CO)NC(=O)C(C(O)C2CNC(=N)N2C2OC(CO)C(O)C(O)C2O)NC(=O)C(C(O)C2CNC(=N)N2)NC(=O)C(Cc2ccc(OC3OC(CO)C(OC4OC5COC(c6ccc(S(C)(=O)=O)cc6)OC5C(O)C4O)C(O)C3O)cc2)NC1=O (stereo not drawn) [Example 157, Cyclo[glycyl-β-methylphenylalanyl-O-[4-O-[4,6-O-(4-(methylsulfonyl)benzylidene)hexopyranosyl]hexopyranosyl]tyrosyl-3-(2-iminoimidazolidin-4-yl)seryl-3-(3-hexopyranosyl-2-iminoimidazolidin-4-yl)serylseryl]]
MIC Staphylococcus haemolyticus (GC 4546) ([3]; 5×10^5 CFU/mL): 16 µg/mL (≈ 10.9 µM)
MIC Staphylococcus haemolyticus (GC 4546) ([3]; strain GC 4546): 16 µg/mL (≈ 10.9 µM)
